Patent publication US4118561A, “7-(Substituted)-7H-pyrrolo[3,2-f]quinazoline-1,3-diamines” (priority 1977, dated 1978)
≈ marks a conversion by molar mass, not a printed value.

How the values were obtained:
S. paratyphi 11737 = test: In vitro antibacterial activity (MIC), S. paratyphi 11737; assay type: cell-based; details: Salmonella enterica, 18 h
[1] = system: lymphocytic leukemia P-388; test: Activity in mice against lymphocytic leukemia P-388; assay type: in vivo; details: Mus musculus, P388, ip; mice, I.P., 20 mg/kg; read-out: T/C

Question: How did the MIC (S. paratyphi 11737) turn out when N#Cc1ccc(Cn2ccc3c4c(N)nc(N)nc4ccc32)cc1 [Example 16, 7-[(4-cyanophenyl)methyl]-7H-pyrrolo[3,2-f]-quinazoline-1,3-diamine] was run?
Answer: 0.488 µg/mL (≈ 1.55 µM)

Question: What about the response vs control in vivo at 20 mg/kg [1] of the same compound?
Answer: 138%
